Five compounds from ChEMBL document CHEMBL1136266, “beta-Homolysine oligomers: a new class of Trojan carriers” (Bioorg Med Chem Lett, 2003) can be followed below.

Holding throughout (type): functional, cell-based
Holding throughout (conditions): Homo sapiens

Test [1] has as its system DU-145. Description: Cellular uptake of compound into DU145 tumor cells by laser scanning cytometry at a concentration of 10 uM.
Test [2] relates to HCT-15. Description: Cellular uptake of compound into HCT15 tumor cells by laser scanning cytometry at a concentration of 0.1 uM.
Test [3] has as its system DU-145. Nature of the test: Cellular uptake of compound into DU145 tumor cells by laser scanning cytometry at a concentration of 0.1 uM.
The test system of test [4] is DU-145. Nature of the test: Cellular uptake of compound into DU145 tumor cells by laser scanning cytometry at a concentration of 1 uM.
Test [5] relates to HCT-15. Nature of the test: Cellular uptake of compound into HCT15 tumor cells by laser scanning cytometry at a concentration of 1 uM.
Test [6] has as its system HCT-15. Nature of the test: Cellular uptake of compound into HCT15 tumor cells by laser scanning cytometry at a concentration of 10 uM.

Turning to `O=C1OC2(c3ccc(O)cc3Oc3cc(O)ccc32)c2ccccc21`, the Uptake worked out at 0.3% in the test on DU-145 [1]; 0.3% with HCT-15 [2]; 0.1% in the test with DU-145 [3]; 0.8% in the test with DU-145 [4]; 1.1% in the test with HCT-15 [5]; 0.7% in the test on HCT-15 [6].
Consider `NCCCCC(CC(N)=O)NC(=O)CC(CCCCN)NC(=O)CC(CCCCN)NC(=O)CC(CCCCN)NC(=O)CC(CCCCN)NC(=O)CC(CCCCN)NC(=O)CC(CCCCN)NC(=O)COCCOCCNC(=O)c1ccccc1C1c2ccc(O)cc2Oc2cc(O)ccc21` (stereo not given), for which the Uptake with DU-145 [1] was determined as 98.8%; in the test with HCT-15 [2] it was 99.9%; in the test on DU-145 [3] it was 92.5%; in the test with DU-145 [4], 85.8%; in the test with HCT-15 [5] it was 99.8%; in the test on HCT-15 [6], 99.8%.
On to `NCCCCC(CC(N)=O)NC(=O)CC(CCCCN)NC(=O)CC(CCCCN)NC(=O)CC(CCCCN)NC(=O)CC(CCCCN)NC(=O)CC(CCCCN)NC(=O)CC(CCCCN)NC(=O)CC(CCCCN)NC(=O)COCCOCCNC(=O)c1ccccc1C1c2ccc(O)cc2Oc2cc(O)ccc21` (stereo not given), for which the Uptake came out at 89.5% with DU-145 [1]; 99.5% with HCT-15 [2]; 98.5% in the test on DU-145 [3]; 98.9% in the test on DU-145 [4]; 99.9% in the test with HCT-15 [5]; 99.9% in the test with HCT-15 [6].
For `NCCCCC(CC(N)=O)NC(=O)CC(CCCCN)NC(=O)CC(CCCCN)NC(=O)CC(CCCCN)NC(=O)CC(CCCCN)NC(=O)CC(CCCCN)NC(=O)COCCOCCNC(=O)c1ccccc1C1c2ccc(O)cc2Oc2cc(O)ccc21` (stereo not given), the Uptake in the test on DU-145 [1] amounted to 94.9%; in the test on HCT-15 [2], 99.9%; in the test on DU-145 [3], 40.4%; in the test on DU-145 [4], 69.5%; in the test with HCT-15 [5], 99.7%; with HCT-15 [6], 99.6%.
`NCCCCC(CC(N)=O)NC(=O)CC(CCCCN)NC(=O)CC(CCCCN)NC(=O)CC(CCCCN)NC(=O)CC(CCCCN)NC(=O)COCCOCCNC(=O)c1ccccc1C1c2ccc(O)cc2Oc2cc(O)ccc21` (stereo not given): the Uptake in the test on DU-145 [1] was 97.8%; in the test on HCT-15 [2] it was 99.8%; in the test on DU-145 [3], 71.9%; with DU-145 [4] it was 76.5%; with HCT-15 [5], 99.6%; in the test on HCT-15 [6], 99.8%.
